Literature values in patent publication US6465192B2, “Compounds and methods for the inhibition of protein-protein interactions” (priority 1997, dated 2002).

Columns and labels:
[1] = halogen substitutions of the phenyl ring, SN1

| Molecule | Relative reaction rate [1] | forward reaction rate with lysine side chains in proteins (physiological conditions) | non-specific covalent bonding rate constant to form stable bonds with amino acid side chains (side chains such as those of serine and lysine) |
| --- | --- | --- | --- |
| COc1ccc([N+](=O)[O-])c(Br)c1CBr [R = Br, 2-methoxy-5-nitro-6-bromobenzyl bromide] | 0.006 | – | – |
| COc1ccc([N+](=O)[O-])c(F)c1CBr [R = F, 2-methoxy-5-nitro-6-fluorobenzyl bromide] | 0.05 | – | – |
| penicillin | – | about 1×10^−5 /M/sec | about 8×10^−6 /M/sec |
